Measured values as given in patent US8735414B2 (priority 2009, dated 2014).

The compounds below were run on bicistronic HCV replicon (replicon RNA, GenBank Accession No. AJ242654) (assay: HCV Replicon Assay). Settings: Hepatitis C virus, 72 h, read-out: Replicon IC50.
Format: cell-based

SMILES	IC50
CCc1cc2c(cc1F)c(C#N)c(-c1ccc(S(=O)(=O)N[C@@H](C)C(F)(F)F)cn1)n2-c1ncc(F)cn1 [compound 946, 6-[3-cyano-6-ethyl-5-fluoro-1-(5-fluoropyrimidin-2-yl)-1H-indol-2-yl]-N-[(2S)-1,1,1-trifluoropropan-2-yl]pyridine-3-sulfonamide]	< 500 nM
Cc1ccc2c(C#N)c(-c3ncc(S(=O)(=O)N[C@@H](C)C4CC4)cn3)n(C3CCC3)c2c1 [compound 202, 2-(3-cyano-1-cyclobutyl-6-methyl-1H-indol-2-yl)-N-[(1S)-1-cyclopropylethyl]pyrimidine-5-sulfonamide]	< 500 nM
[2H]C([2H])(C)c1cc2c(cc1F)c(C#N)c(-c1ccc(S(=O)(=O)N[C@@H](C)C(F)(F)F)cn1)n2-c1ncccn1 [compound 1078, 6-{3-cyano-6-[(1,1-dideuterium)ethyl]-5-fluoro-1-(pyrimidin-2-yl)-1H-indol-2-yl}-N-[(2S)-1,1,1-trifluoropropan-2-yl]pyridine-3-sulfonamide]	< 500 nM
Cc1cc2c(cc1F)cc(-c1ccc(S(=O)(=O)N[C@@H](C)C(F)(F)F)cn1)n2-c1ncco1 [compound 1059, 6-[5-fluoro-6-methyl-1-(1,3-oxazol-2-yl)-1H-indol-2-yl]-N-[(2S)-1,1,1-trifluoropropan-2-yl]pyridine-3-sulfonamide]	< 500 nM
C[C@H](NS(=O)(=O)c1ccc(-c2c(C#N)c3ccc(Cl)cc3n2C2CCCC2)nc1)C(F)(F)F [compound 364, 6-(6-chloro-3-cyano-1-cyclopentyl-1H-indol-2-yl)-N-[(2S)-1,1,1-trifluoropropan-2-yl]pyridine-3-sulfonamide]	< 500 nM
C[C@H](NS(=O)(=O)c1ccc(-c2c(C#N)c3ccc(CF)cc3n2C2CCC2)nc1)C1CC1 [compound 317, 6-[3-cyano-1-cyclobutyl-6-(fluoromethyl)-1H-indol-2-yl]-N-[(1S)-1-cyclopropylethyl]pyridine-3-sulfonamide]	< 500 nM
CC(C)S(=O)(=O)Nc1ccc(-c2c(C#N)c3ccc(OCC(F)(F)F)cc3n2CC2CC2)cn1 [compound 291, N-{5-[3-cyano-1-(cyclopropylmethyl)-6-(2,2,2-trifluoroethoxy)-1H-indol-2-yl]pyridin-2-yl}propane-2-sulfonamide]	500 to 2000 nM
C[C@H](NS(=O)(=O)c1ccc(-c2c(C#N)c3cc(Cl)c(OC(F)F)cc3n2C2CCC2)nc1)C(F)(F)F [compound 636, 6-[5-chloro-3-cyano-1-cyclobutyl-6-(difluoromethoxy)-1H-indol-2-yl]-N-[(2S)-1,1,1-trifluoropropan-2-yl]pyridine-3-sulfonamide]	< 500 nM
[2H]C([2H])(C)c1cc2c(cc1F)c(C#N)c(-c1ccc(S(=O)(=O)N[C@@]([2H])(C)C(F)(F)F)cn1)n2-c1ncccn1 [compound 1079, 6-{3-cyano-6-[(1,1-dideuterium)ethyl]-5-fluoro-1-(pyrimidin-2-yl)-1H-indol-2-yl}-N-[(2S)-1,1,1-trifluoro(2-deuterium)propan-2-yl]pyridine-3-sulfonamide]	< 500 nM
CC(C)n1c(-c2ncc(S(=O)(=O)NC(CF)CF)cn2)c(C#N)c2cc(Cl)ccc21 [compound 187, 2-[5-chloro-3-cyano-1-(propan-2-yl)-1H-indol-2-yl]-N-(1,3-difluoropropan-2-yl)pyrimidine-5-sulfonamide]	< 500 nM
Cc1cc2c(cc1F)c(C#N)c(-c1ccc(S(=O)(=O)NC(C)(C)C)cn1)n2C1CCOCC1 [compound 752, N-tert-butyl-6-[3-cyano-5-fluoro-6-methyl-1-(tetrahydro-2H-pyran-4-yl)-1H-indol-2-yl]pyridine-3-sulfonamide]	< 500 nM
N#Cc1c(-c2ccc(S(=O)(=O)NC(CF)CF)cn2)n(C2CCC2)c2cc(C=C(F)F)ccc12 [compound 103, 6-[3-cyano-1-cyclobutyl-6-(2,2-difluoroethenyl)-1H-indol-2-yl]-N-(1,3-difluoropropan-2-yl)pyridine-3-sulfonamide]	< 500 nM
N#Cc1c(-c2ncc(S(=O)(=O)NC(CF)CF)cn2)n(C2CCC2)c2cc(C(F)F)ccc12 [compound 330, 2-[3-cyano-1-cyclobutyl-6-(difluoromethyl)-1H-indol-2-yl]-N-(1,3-difluoropropan-2-yl)pyrimidine-5-sulfonamide]	< 500 nM
CC(C)NS(=O)(=O)c1ccc(-c2c(C#N)c3ccc(OC(F)(F)F)cc3n2C2CCCC2)nc1 [compound 17, 6-[3-cyano-1-cyclopentyl-6-(trifluoromethoxy)-1H-indol-2-yl]-N-(propan-2-yl)pyridine-3-sulfonamide]	500 to 2000 nM
[2H]C([2H])([2H])c1cc2c(cc1F)c(C#N)c(-c1ccc(S(=O)(=O)N[C@@]([2H])(C)C(F)(F)F)cn1)n2-c1ncccn1 [compound 1107, 6-[3-cyano-5-fluoro-6-(1,1,1-trideuterium)methyl-1-(pyrimidin-2-yl)-1H-indol-2-yl]-N-[(2S)-1,1,1-trifluoro(2-deuterium)propan-2-yl]pyridine-3-sulfonamide]	< 500 nM
N#Cc1c(-c2ccc(S(=O)(=O)NC(CF)CF)cn2)n(CC2CC2)c2cc(C3CC3)ccc12 [compound 84, 6-[3-cyano-6-cyclopropyl-1-(cyclopropylmethyl)-1H-indol-2-yl]-N-(1,3-difluoropropan-2-yl)pyridine-3-sulfonamide]	< 500 nM

SMILES	IC50
Cc1ccc2c(C#N)c(-c3ccc(S(=O)(=O)N[C@@H](C)C4CC4)cn3)n(CC3CC3)c2c1 [compound 237, 6-[3-cyano-1-(cyclopropylmethyl)-6-methyl-1H-indol-2-yl]-N-[(1S)-1-cyclopropylethyl]pyridine-3-sulfonamide]	< 500 nM
C[C@H](NS(=O)(=O)c1ccc(-c2c(C#N)c3c(F)cc(OC(F)F)cc3n2CC2CC2)nc1)C(F)(F)F [compound 773, 6-[3-cyano-1-(cyclopropylmethyl)-6-(difluoromethoxy)-4-fluoro-1H-indol-2-yl]-N-[(2S)-1,1,1-trifluoropropan-2-yl]pyridine-3-sulfonamide]	500 to 2000 nM
N#Cc1c(-c2ccc(S(=O)(=O)NC(CF)CF)cn2)n(C2CCCC2)c2ccc(Cl)cc12 [compound 72, 6-(5-chloro-3-cyano-1-cyclopentyl-1H-indol-2-yl)-N-(1,3-difluoropropan-2-yl)pyridine-3-sulfonamide]	< 500 nM
C[C@@H](C1CC1)n1c(-c2ccc(NS(=O)(=O)C(C)(C)C)nc2)c(C(=O)O)c2cc(F)c(OC(F)F)cc21 [compound 1080, 2-{6-[(tert-butylsulfonyl)amino]pyridin-3-yl}-1-[(1S)-1-cyclopropylethyl]-6-(difluoromethoxy)-5-fluoro-1H-indole-3-carboxylic acid]	500 to 2000 nM
C[C@H](NS(=O)(=O)c1cnc(-c2c(C#N)c3ccc(Cl)cc3n2CC2CC2)nc1)C(F)(F)F [compound 415, 2-[6-chloro-3-cyano-1-(cyclopropylmethyl)-1H-indol-2-yl]-N-[(2S)-1,1,1-trifluoropropan-2-yl]pyrimidine-5-sulfonamide]	< 500 nM
[2H][C@@](C)(NS(=O)(=O)c1ccc(-c2c(C#N)c3cc(F)c(CC)cc3n2-c2ncccn2)nc1)C(F)(F)F [compound 956, 6-[3-cyano-6-ethyl-5-fluoro-1-(pyrimidin-2-yl)-1H-indol-2-yl]-N-[(2S)-1,1,1-trifluoro(2-deuterium)propan-2-yl]pyridine-3-sulfonamide]	< 500 nM
CCc1cc2c(cc1F)c(C#N)c(-c1ccc(S(=O)(=O)N[C@H](C)C(F)(F)F)cn1)n2-c1ncccn1 [compound 878, 6-[3-cyano-6-ethyl-5-fluoro-1-(pyrimidin-2-yl)-1H-indol-2-yl]-N-[(2R)-1,1,1-trifluoropropan-2-yl]pyridine-3-sulfonamide]	< 500 nM
COc1ccc2c(C#N)c(-c3ccc(S(=O)(=O)NC4CC(F)(F)C4)cn3)n(C3CCCC3)c2c1 [compound 246, 6-(3-cyano-1-cyclopentyl-6-methoxy-1H-indol-2-yl)-N-(3,3-difluorocyclobutyl)pyridine-3-sulfonamide]	500 to 2000 nM
Cc1ccc2c(c1)c(C(N)=O)c(-c1ccc(S(=O)(=O)N[C@@H](C)C(F)(F)F)cn1)n2-c1ncccn1 [compound 846, 5-methyl-1-(pyrimidin-2-yl)-2-(5-{[(2S)-1,1,1-trifluoropropan-2-yl]sulfamoyl}pyridin-2-yl)-1H-indole-3-carboxamide]	< 500 nM
CC(C)(C)N(C(F)F)S(=O)(=O)c1ccc(-c2c(C#N)c3cc(F)c(OC(F)F)cc3n2C2CCC2)nc1 [compound 721, N-tert-butyl-6-[3-cyano-1-cyclobutyl-6-(difluoromethoxy)-5-fluoro-1H-indol-2-yl]-N-(difluoromethyl)pyridine-3-sulfonamide]	500 to 2000 nM
C[C@@H](NS(=O)(=O)c1ccc(-c2c(C#N)c3cc(F)c(OC(F)F)cc3n2-c2ccccn2)nc1)C(F)(F)F [compound 670, 6-[3-cyano-6-(difluoromethoxy)-5-fluoro-1-(pyridin-2-yl)-1H-indol-2-yl]-N-[(2R)-1,1,1-trifluoropropan-2-yl]pyridine-3-sulfonamide]	< 500 nM
COC(=O)c1c(-c2ccc(S(=O)(=O)NC(C)(C)C)cn2)n(C2CCC2)c2cc(C)c(F)cc12 [compound 770, methyl 2-[5-(tert-butylsulfamoyl)pyridin-2-yl]-1-cyclobutyl-5-fluoro-6-methyl-1H-indole-3-carboxylate]	< 500 nM
Cc1nc(NS(=O)(=O)C(C)(C)C)ccc1-c1c(C(=O)O)c2cc(F)c(OC(F)F)cc2n1C(C)C [compound 1093, 2-{6-[(tert-butylsulfonyl)amino]-2-methylpyridin-3-yl}-6-(difluoromethoxy)-5-fluoro-1-(propan-2-yl)-1H-indole-3-carboxylic acid]	500 to 2000 nM
CC(O)c1cc2c(cc1F)c(C#N)c(-c1ccc(S(=O)(=O)N[C@@H](C)C(F)(F)F)cn1)n2-c1ncccn1 (stereo partly drawn) [compound 911, 6-[3-cyano-5-fluoro-6-(1-hydroxyethyl)-1-(pyrimidin-2-yl)-1H-indol-2-yl]-N-[(2S)-1,1,1-trifluoropropan-2-yl]pyridine-3-sulfonamide]	< 500 nM
N#Cc1c(-c2ccc(S(=O)(=O)NC(CF)CF)cn2)n(C2CCCCC2)c2ccc(Cl)cc12 [compound 79, 6-(5-chloro-3-cyano-1-cyclohexyl-1H-indol-2-yl)-N-(1,3-difluoropropan-2-yl)pyridine-3-sulfonamide]	< 500 nM
